Results taken from ChEMBL document CHEMBL1201862, “PubChem BioAssay data set” (2004).
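Assay format: 96-well plates, 48-hour exposure. Abbreviation: GI50, concentration required for 50% inhibition of growth.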 The source made the active and inactive calls. Rule as the data show it: active = GI50 up to about 1.1 µM and inactive = higher.

Key:
Test in all cases: NCI anticancer screen, dose series, 48 h
HCT-15 = test system: HCT-15
SF-268 = test system: SF-268
HT-29 = test system: HT-29
Malme-3M = test system: Malme-3M
OVCAR-4 = test system: OVCAR-4
KM12 = test system: KM12
RXF 393 = test system: RXF 393
HOP-92 = test system: HOP-92
OVCAR-8 = test system: OVCAR-8
EKVX = test system: EKVX
UACC-257 = test system: UACC-257
786-0 = test system: 786-0
A549 = test system: A549
MOLT-4 = test system: MOLT-4
OVCAR-5 = test system: OVCAR-5
SK-MEL-28 = test system: SK-MEL-28
NCI-H226 = test system: NCI-H226
NCI-H522 = test system: NCI-H522

Structure (SMILES)	GI50 (HCT-15)	GI50 (SF-268)	GI50 (HT-29)	GI50 (Malme-3M)	GI50 (OVCAR-4)	GI50 (KM12)	GI50 (RXF 393)	GI50 (HOP-92)	GI50 (OVCAR-8)	GI50 (EKVX)	GI50 (UACC-257)	GI50 (786-0)	GI50 (A549)	GI50 (MOLT-4)	GI50 (OVCAR-5)	GI50 (SK-MEL-28)	GI50 (NCI-H226)	GI50 (NCI-H522)
C[C@]12Cc3conc3C(O)=C1CC[C@@H]1C2CC[C@@]2(C)C1CC[C@]2(C)O (stereo not given in full)	10.7 µM	28.8 µM (inactive)	20.6 µM (inactive)	18.5 µM (inactive)	17.2 µM (inactive)	13.7 µM (inactive)	18.9 µM (inactive)	32.4 µM (inactive)	23.4 µM (inactive)	21.5 µM (inactive)	22.4 µM (inactive)	22.7 µM (inactive)	28.1 µM (inactive)	15.2 µM (inactive)	29.2 µM (inactive)	19.9 µM (inactive)	14.8 µM (inactive)	–
CCOc1ccc2c(c1)[n+]([O-])c(-c1ccc(Br)cc1)c(N)[n+]2[O-]	47 µM	42.8 µM (inactive)	64.4 µM (inactive)	55.6 µM (inactive)	> 100 µM (inactive)	85.5 µM (inactive)	–	–	57.7 µM (inactive)	52.8 µM (inactive)	59.4 µM (inactive)	> 100 µM (inactive)	59.6 µM (inactive)	40.9 µM (inactive)	> 100 µM (inactive)	30.9 µM (inactive)	> 100 µM (inactive)	16.6 µM (inactive)
Cc1nc2nn(C)cc2c(=O)n1/N=C/c1ccccc1	> 100 µM	> 100 µM (inactive)	> 100 µM (inactive)	> 100 µM (inactive)	> 100 µM (inactive)	> 100 µM (inactive)	> 100 µM (inactive)	–	> 100 µM (inactive)	> 100 µM (inactive)	> 100 µM (inactive)	> 100 µM (inactive)	> 100 µM (inactive)	> 100 µM (inactive)	> 100 µM (inactive)	> 100 µM (inactive)	> 100 µM (inactive)	> 100 µM (inactive)
O=C1OC(=O)C2C1C1C(c3ccccc3)=C(c3ccccc3)C2(O)C2C(=O)OC(=O)C12 (stereo not given)	> 100 µM	> 100 µM (inactive)	46.9 µM (inactive)	> 100 µM (inactive)	> 100 µM (inactive)	> 100 µM (inactive)	–	65.6 µM (inactive)	63.8 µM (inactive)	> 100 µM (inactive)	> 100 µM (inactive)	92.3 µM (inactive)	> 100 µM (inactive)	32.5 µM (inactive)	> 100 µM (inactive)	98.4 µM (inactive)	> 100 µM (inactive)	68.7 µM (inactive)
Nc1ccn(CCCC(c2ccccc2)P(=O)(O)O)c(=O)n1 (stereo not given)	> 100 µM	> 100 µM (inactive)	> 100 µM (inactive)	> 100 µM (inactive)	–	> 100 µM (inactive)	–	91.4 µM (inactive)	> 100 µM (inactive)	–	> 100 µM (inactive)	> 100 µM (inactive)	> 100 µM (inactive)	–	> 100 µM (inactive)	> 100 µM (inactive)	–	> 100 µM (inactive)
CN(C)c1ccc(/C=N\N2C(=O)c3ccccc3C2=O)cc1	> 100 µM	> 100 µM (inactive)	> 100 µM (inactive)	> 100 µM (inactive)	> 100 µM (inactive)	> 100 µM (inactive)	> 100 µM (inactive)	> 100 µM (inactive)	> 100 µM (inactive)	> 100 µM (inactive)	> 100 µM (inactive)	> 100 µM (inactive)	> 100 µM (inactive)	> 100 µM (inactive)	> 100 µM (inactive)	> 100 µM (inactive)	> 100 µM (inactive)	–
CCOC(=O)/C(C(=O)c1ccccc1)=C1/NCCN1C	> 100 µM	> 100 µM (inactive)	> 100 µM (inactive)	> 100 µM (inactive)	> 100 µM (inactive)	> 100 µM (inactive)	> 100 µM (inactive)	–	> 100 µM (inactive)	> 100 µM (inactive)	> 100 µM (inactive)	> 100 µM (inactive)	> 100 µM (inactive)	> 100 µM (inactive)	> 100 µM (inactive)	> 100 µM (inactive)	> 100 µM (inactive)	> 100 µM (inactive)
Cc1[nH]c(O)nc1C(=O)c1ccc(-n2ccnc2)cc1	> 100 µM	> 100 µM (inactive)	> 100 µM (inactive)	> 100 µM (inactive)	> 100 µM (inactive)	> 100 µM (inactive)	> 100 µM (inactive)	–	> 100 µM (inactive)	–	> 100 µM (inactive)	> 100 µM (inactive)	> 100 µM (inactive)	> 100 µM (inactive)	> 100 µM (inactive)	> 100 µM (inactive)	> 100 µM (inactive)	> 100 µM (inactive)
CC(C)Oc1ccc(CNC2=NCCO2)c2ccccc12	15.6 µM	22.3 µM (inactive)	4.01 µM (inactive)	14.1 µM (inactive)	13.9 µM (inactive)	18.1 µM (inactive)	13.8 µM (inactive)	–	15.2 µM (inactive)	15.1 µM (inactive)	5.25 µM (inactive)	13.6 µM (inactive)	15.4 µM (inactive)	4.85 µM (inactive)	11.6 µM (inactive)	14.5 µM (inactive)	15.7 µM (inactive)	–
CC(C)(C)OC(=O)NCCc1cccc2c1oc1c(CCC(=O)O)cccc12	> 100 µM	> 100 µM (inactive)	> 100 µM (inactive)	> 100 µM (inactive)	> 100 µM (inactive)	> 100 µM (inactive)	> 100 µM (inactive)	> 100 µM (inactive)	> 100 µM (inactive)	–	> 100 µM (inactive)	> 100 µM (inactive)	> 100 µM (inactive)	> 100 µM (inactive)	> 100 µM (inactive)	> 100 µM (inactive)	> 100 µM (inactive)	> 100 µM (inactive)
O=C1c2ccccc2C(=O)c2c(O)ccc(O)c21 [QUINIZARIN]	> 100 µM	> 100 µM (inactive)	45.3 µM (inactive)	> 100 µM (inactive)	> 100 µM (inactive)	60.5 µM (inactive)	> 100 µM (inactive)	> 100 µM (inactive)	> 100 µM (inactive)	58.7 µM (inactive)	> 100 µM (inactive)	> 100 µM (inactive)	81.3 µM (inactive)	52 µM (inactive)	> 100 µM (inactive)	> 100 µM (inactive)	–	> 100 µM (inactive)
O=C1C[C@@H]2[C@@H](CCC23CCCC3)N1	> 100 µM	> 100 µM (inactive)	> 100 µM (inactive)	> 100 µM (inactive)	> 100 µM (inactive)	> 100 µM (inactive)	> 100 µM (inactive)	–	> 100 µM (inactive)	> 100 µM (inactive)	> 100 µM (inactive)	> 100 µM (inactive)	> 100 µM (inactive)	> 100 µM (inactive)	> 100 µM (inactive)	> 100 µM (inactive)	> 100 µM (inactive)	> 100 µM (inactive)
COc1ccc2c(CCNC(=O)/C=C/c3ccccc3)c(C(C)=O)[nH]c2c1[N+](=O)[O-]	6.89 µM	4.26 µM (inactive)	4.99 µM (inactive)	–	21.8 µM (inactive)	7.73 µM (inactive)	–	–	17.9 µM (inactive)	–	8.95 µM (inactive)	20.3 µM (inactive)	8.05 µM (inactive)	5.69 µM (inactive)	> 10 µM (inactive)	14.5 µM (inactive)	20.9 µM (inactive)	3.35 µM (inactive)
O=C1c2ccccc2C(=O)c2c(O)c(O)cc(O)c21 [PURPURIN]	36.5 µM	42.4 µM (inactive)	–	32.7 µM (inactive)	41 µM (inactive)	41.5 µM (inactive)	21.7 µM (inactive)	25.2 µM (inactive)	55.5 µM (inactive)	50.9 µM (inactive)	49.4 µM (inactive)	25.8 µM (inactive)	44.7 µM (inactive)	34 µM (inactive)	80.7 µM (inactive)	38.6 µM (inactive)	–	33.6 µM (inactive)
Cc1c(C)n(COCCO)c2ncnc(N)c12	> 100 µM	> 100 µM (inactive)	> 100 µM (inactive)	–	> 100 µM (inactive)	> 100 µM (inactive)	> 100 µM (inactive)	> 100 µM (inactive)	> 100 µM (inactive)	> 100 µM (inactive)	–	> 100 µM (inactive)	> 100 µM (inactive)	> 100 µM (inactive)	–	> 100 µM (inactive)	> 100 µM (inactive)	> 100 µM (inactive)
O=S1(=O)NN=C(NCc2ccc(Cl)cc2)c2ccccc21	67 µM	> 100 µM (inactive)	> 100 µM (inactive)	> 100 µM (inactive)	> 100 µM (inactive)	> 100 µM (inactive)	30.5 µM (inactive)	35.3 µM (inactive)	> 100 µM (inactive)	46.9 µM (inactive)	> 100 µM (inactive)	54.5 µM (inactive)	> 100 µM (inactive)	22.8 µM (inactive)	> 100 µM (inactive)	–	> 100 µM (inactive)	–
C=CC1=CSNN1	> 100 µM	> 100 µM (inactive)	> 100 µM (inactive)	> 100 µM (inactive)	> 100 µM (inactive)	> 100 µM (inactive)	> 100 µM (inactive)	> 100 µM (inactive)	> 100 µM (inactive)	> 100 µM (inactive)	> 100 µM (inactive)	> 100 µM (inactive)	> 100 µM (inactive)	> 100 µM (inactive)	> 100 µM (inactive)	> 100 µM (inactive)	–	> 100 µM (inactive)
